ChEMBL document CHEMBL3988442, “University of Dundee, Small-Polar-MMV Screening Library” (2021)
Several values for one entry are separate records, joined by “and”; a condition that tells them apart may be missing. Equal values may be shown once.

How the values were obtained:
[1] = target: Chromo domain-containing protein 1 (Saccharomyces cerevisiae (strain ATCC 204508 / S288c) (Baker's yeast), UniProt P32657); assay: ScCHD-1 Enzyme Inhibition Assay; assay type: functional
[2] = target: T1, Ubiquitin-activating enzyme e1, putative (Leishmania donovani (strain BPK282A1), UniProt E9BSI1); assay: Leishmania donovani Ubiquitin Activating Enzyme (LdE1); assay type: functional
T1 sequence (E9BSI1 whole entry): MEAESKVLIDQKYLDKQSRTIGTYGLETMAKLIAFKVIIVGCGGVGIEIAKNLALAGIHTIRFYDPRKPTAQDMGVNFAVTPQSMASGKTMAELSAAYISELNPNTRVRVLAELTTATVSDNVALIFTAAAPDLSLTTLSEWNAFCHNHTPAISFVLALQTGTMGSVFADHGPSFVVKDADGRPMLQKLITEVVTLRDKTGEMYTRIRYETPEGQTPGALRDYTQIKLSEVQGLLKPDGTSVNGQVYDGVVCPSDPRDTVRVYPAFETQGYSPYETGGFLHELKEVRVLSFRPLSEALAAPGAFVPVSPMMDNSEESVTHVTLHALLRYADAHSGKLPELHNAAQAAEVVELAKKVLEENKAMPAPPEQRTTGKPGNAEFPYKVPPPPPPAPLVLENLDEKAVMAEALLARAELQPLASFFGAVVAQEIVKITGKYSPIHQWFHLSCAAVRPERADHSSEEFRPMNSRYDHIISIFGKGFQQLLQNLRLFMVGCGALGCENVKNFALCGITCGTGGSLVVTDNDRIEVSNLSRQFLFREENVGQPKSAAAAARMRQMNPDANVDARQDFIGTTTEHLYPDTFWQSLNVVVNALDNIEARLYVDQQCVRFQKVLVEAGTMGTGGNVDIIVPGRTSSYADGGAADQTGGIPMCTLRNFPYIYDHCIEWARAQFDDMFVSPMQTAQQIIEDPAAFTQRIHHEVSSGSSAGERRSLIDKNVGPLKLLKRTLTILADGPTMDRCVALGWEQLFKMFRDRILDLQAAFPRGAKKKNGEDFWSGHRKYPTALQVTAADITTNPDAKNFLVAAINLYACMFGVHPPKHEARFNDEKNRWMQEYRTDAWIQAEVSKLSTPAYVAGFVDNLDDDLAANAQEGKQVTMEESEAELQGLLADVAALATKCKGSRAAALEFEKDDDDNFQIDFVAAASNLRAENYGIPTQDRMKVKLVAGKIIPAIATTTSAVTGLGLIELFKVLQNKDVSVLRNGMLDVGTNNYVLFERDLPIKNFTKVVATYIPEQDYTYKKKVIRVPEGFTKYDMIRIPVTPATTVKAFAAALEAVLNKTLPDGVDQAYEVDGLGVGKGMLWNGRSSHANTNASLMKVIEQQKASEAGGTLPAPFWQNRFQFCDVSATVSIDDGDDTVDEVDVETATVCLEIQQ

[3] = target: Polyketide synthase Pks13 (Mycobacterium tuberculosis (strain ATCC 25618 / H37Rv), UniProt I6X8D2); assay: Mycobacterium tuberculosis Polyketide synthase 13 Thioesterase (PKS13); assay type: functional
Sequence of Polyketide synthase Pks13 (I6X8D2 whole entry): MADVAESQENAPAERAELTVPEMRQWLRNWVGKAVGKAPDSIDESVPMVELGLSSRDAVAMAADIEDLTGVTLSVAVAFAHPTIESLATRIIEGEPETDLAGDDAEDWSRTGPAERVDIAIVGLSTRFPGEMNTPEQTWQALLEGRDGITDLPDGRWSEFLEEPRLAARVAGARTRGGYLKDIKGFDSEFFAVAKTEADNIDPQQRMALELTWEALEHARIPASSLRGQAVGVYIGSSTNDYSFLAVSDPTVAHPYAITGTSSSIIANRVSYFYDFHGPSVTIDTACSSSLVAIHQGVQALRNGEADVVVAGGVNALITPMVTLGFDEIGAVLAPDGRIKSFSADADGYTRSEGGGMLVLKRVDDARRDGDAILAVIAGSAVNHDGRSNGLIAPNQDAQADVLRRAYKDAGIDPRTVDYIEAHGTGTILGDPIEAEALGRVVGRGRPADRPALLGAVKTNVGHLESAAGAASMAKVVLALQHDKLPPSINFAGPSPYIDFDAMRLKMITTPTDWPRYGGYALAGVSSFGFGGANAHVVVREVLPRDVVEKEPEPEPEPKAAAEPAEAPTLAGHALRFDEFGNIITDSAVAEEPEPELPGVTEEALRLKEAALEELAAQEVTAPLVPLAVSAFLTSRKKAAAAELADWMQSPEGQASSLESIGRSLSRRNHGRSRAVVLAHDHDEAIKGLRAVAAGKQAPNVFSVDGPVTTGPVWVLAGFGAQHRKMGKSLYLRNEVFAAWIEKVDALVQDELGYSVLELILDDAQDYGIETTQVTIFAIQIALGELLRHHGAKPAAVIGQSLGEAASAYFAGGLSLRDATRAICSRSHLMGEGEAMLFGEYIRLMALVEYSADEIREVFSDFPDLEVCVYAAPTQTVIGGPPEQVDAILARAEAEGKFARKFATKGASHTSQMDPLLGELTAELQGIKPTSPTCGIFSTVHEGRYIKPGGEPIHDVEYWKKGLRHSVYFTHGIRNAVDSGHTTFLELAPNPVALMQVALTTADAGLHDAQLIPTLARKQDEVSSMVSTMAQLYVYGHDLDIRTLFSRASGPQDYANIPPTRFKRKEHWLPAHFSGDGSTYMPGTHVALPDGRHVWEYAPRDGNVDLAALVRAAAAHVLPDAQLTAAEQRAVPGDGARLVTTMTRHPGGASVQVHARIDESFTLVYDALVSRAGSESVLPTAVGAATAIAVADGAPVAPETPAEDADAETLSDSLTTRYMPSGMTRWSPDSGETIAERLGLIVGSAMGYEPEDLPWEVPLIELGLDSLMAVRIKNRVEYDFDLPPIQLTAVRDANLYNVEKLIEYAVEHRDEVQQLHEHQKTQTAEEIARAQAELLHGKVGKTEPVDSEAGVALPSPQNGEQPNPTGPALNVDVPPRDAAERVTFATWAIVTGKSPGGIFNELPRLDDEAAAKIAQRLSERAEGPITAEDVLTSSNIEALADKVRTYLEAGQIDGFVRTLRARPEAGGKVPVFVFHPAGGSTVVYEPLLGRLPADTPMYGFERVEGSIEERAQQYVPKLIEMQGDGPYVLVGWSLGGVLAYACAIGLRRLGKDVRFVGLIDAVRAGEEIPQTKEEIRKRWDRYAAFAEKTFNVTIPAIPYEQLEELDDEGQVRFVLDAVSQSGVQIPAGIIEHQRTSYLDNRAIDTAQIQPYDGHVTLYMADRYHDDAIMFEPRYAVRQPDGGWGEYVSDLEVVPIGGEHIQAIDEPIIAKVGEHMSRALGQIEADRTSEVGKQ

[4] = system: Mycobacterium tuberculosis; assay: Cornell M. t heat shock assay; assay type: functional, organism-based; conditions: Mycobacterium tuberculosis
[5] = system: Plasmodium falciparum; assay: Plasmodium falciparum sporozoite viability assay; assay type: functional, organism-based; conditions: Plasmodium falciparum
[6] = target: Lysine--tRNA ligase (Plasmodium falciparum (isolate 3D7), UniProt Q8IDJ8); assay: Pf-KRS-1 (Lysyl-RNA Synthetase-1, KRS-1, cytosolic KRS) from Plasmodium falciparum. Inhibitor assay, 384 well plate, luminescence read.; assay type: functional
Sequence of Lysine--tRNA ligase (Q8IDJ8 whole entry): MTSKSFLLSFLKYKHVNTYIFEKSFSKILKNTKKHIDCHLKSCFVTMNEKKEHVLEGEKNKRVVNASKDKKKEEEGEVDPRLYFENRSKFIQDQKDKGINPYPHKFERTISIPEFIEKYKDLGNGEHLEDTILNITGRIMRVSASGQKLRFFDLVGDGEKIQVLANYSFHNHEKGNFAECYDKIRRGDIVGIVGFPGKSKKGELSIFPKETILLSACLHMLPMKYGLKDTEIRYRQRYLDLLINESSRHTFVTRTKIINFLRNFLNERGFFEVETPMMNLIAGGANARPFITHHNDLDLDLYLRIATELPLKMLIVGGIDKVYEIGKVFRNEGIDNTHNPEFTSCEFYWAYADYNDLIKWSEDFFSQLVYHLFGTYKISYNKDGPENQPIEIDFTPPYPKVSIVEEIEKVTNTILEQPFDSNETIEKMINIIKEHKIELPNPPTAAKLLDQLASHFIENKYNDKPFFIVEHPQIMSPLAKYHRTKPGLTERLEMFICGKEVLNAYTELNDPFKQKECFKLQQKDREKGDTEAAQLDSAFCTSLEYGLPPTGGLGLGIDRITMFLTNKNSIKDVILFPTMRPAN

[7] = target: T2, Histidine--tRNA ligase (Leishmania infantum, UniProt A4I591); assay: Leishmania infantum Histidine tRNA synthetase (LdHisRS); assay type: functional
T2 sequence (A4I591 whole entry): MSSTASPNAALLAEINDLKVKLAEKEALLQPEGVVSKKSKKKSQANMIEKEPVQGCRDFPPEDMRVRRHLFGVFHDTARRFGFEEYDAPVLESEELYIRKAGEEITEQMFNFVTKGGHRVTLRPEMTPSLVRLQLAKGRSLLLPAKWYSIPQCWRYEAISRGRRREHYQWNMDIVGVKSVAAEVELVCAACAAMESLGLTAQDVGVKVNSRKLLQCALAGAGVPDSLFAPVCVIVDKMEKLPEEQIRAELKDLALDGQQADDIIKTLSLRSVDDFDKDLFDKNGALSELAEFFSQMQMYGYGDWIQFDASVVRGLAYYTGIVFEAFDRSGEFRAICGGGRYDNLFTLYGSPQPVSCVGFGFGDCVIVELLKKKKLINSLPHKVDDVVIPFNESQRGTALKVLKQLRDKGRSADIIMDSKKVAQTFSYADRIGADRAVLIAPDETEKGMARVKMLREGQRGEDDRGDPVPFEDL

Sequence of Chromo domain-containing protein 1 (P32657 whole entry, the tested form may be a part): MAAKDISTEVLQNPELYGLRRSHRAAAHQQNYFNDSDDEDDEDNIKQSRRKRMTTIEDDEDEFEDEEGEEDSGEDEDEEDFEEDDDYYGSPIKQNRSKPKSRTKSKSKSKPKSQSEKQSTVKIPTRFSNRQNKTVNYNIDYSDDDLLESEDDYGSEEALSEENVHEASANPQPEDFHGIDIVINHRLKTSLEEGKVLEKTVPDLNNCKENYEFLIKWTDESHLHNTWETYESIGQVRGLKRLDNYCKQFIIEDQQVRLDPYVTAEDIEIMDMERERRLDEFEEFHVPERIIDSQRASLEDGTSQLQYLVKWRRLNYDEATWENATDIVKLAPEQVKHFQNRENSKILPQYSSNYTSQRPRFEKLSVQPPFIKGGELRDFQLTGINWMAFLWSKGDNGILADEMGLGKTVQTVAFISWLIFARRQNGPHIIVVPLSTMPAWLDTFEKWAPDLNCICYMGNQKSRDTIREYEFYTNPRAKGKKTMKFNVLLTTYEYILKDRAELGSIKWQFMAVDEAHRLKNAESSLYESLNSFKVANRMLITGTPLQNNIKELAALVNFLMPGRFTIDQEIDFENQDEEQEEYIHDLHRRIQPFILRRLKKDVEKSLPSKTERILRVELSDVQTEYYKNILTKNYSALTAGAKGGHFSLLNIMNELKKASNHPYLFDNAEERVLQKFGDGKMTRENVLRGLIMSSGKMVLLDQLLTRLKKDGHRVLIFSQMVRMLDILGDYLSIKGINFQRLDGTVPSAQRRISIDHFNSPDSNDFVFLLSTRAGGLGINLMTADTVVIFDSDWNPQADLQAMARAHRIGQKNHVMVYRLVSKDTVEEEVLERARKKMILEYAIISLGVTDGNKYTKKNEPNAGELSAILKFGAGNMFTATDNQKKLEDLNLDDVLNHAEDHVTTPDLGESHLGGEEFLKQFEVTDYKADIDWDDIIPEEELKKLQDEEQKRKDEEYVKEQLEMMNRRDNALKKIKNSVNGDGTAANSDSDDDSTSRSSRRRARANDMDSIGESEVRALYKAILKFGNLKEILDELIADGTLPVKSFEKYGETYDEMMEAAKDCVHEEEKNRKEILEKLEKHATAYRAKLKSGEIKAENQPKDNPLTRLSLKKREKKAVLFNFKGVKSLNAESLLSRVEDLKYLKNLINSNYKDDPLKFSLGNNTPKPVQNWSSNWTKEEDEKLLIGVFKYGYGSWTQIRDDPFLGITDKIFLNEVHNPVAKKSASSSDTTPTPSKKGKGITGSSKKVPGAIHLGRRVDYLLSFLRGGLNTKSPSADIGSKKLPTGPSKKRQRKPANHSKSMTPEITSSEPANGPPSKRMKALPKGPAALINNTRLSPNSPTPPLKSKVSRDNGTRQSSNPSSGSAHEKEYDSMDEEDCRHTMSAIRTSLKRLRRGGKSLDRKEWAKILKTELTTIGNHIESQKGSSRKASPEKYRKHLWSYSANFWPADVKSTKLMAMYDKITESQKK

SMILES | IC50 [1] | other results
CCOc1ccc(N2CCCN=C2NC(=O)c2ccccc2C)cc1 | > 29.5 µM | 
CC(C)c1noc(CCC(=O)NC(C)c2nnc3n2CCCCC3)n1 (configuration not stated) | > 29.5 µM | 
COc1ccc(CC(=O)N(C)Cc2nnc3ccccn23)cc1 | > 29.5 µM | 
CSCc1nc(C(C)(C)NC(=O)OC(C)(C)C)no1 | > 29.5 µM | 
Cc1ccccc1C1CCCN1C(=O)CN1CC2(CCNCC2)OC1=O (configuration not stated) | > 29.5 µM | 
CC(=O)c1cccc(NC(=O)Cn2cc(I)cn2)c1 | > 29.5 µM | 
CC(CNC(=O)c1ccc(Cl)cc1I)N1CCCC1 (configuration not stated) | > 29.5 µM | 
O=C(Cc1cccnc1)N1CCC(OCc2ccccc2)CC1 | > 29.5 µM | 
Cc1ccc(C(=O)NCCCN2CCOCC2)c(Cl)c1 | > 29.5 µM | 
CC(=O)NCCC(=O)NCc1cccnc1-n1cnc2ccccc21 | > 29.5 µM | 
Cc1cccc(CN2C[C@@H]3COC[C@]3(CNC(=O)c3ccsc3)C2)n1 | > 29.5 µM | 
Cc1cnn(C2CN(CC(O)c3ccc(F)cc3)C2)c1 (configuration not stated) | > 29.5 µM | 
CN(Cc1cccc(F)c1)C(=O)CN1CCCC1CCc1ccccc1 (configuration not stated) | > 29.5 µM | 
Cc1ccc(=O)n(CC2(O)CCN(Cc3cc(C)c(O)c(C)c3)CC2)n1 | > 29.5 µM | 
Cc1nn(C)c(C)c1NC(=O)CCn1ncc2c(C)cccc21 | > 29.5 µM | 
Cc1nc(N)sc1C(=O)N1CCCC(c2nccn2CCCN(C)C)C1 (configuration not stated) | > 29.5 µM | 
CCS(=O)(=O)Nc1ccn(Cc2cccc(Cl)c2)n1 | > 29.5 µM | 
CC(C)CN1C[C@H]2CCN(c3ncccn3)CC[C@H]2S1(=O)=O | > 29.5 µM | 
NCC1(c2cccc(C(F)(F)F)c2)CCOCC1 | > 29.5 µM | 
Cn1ccc(NC(=O)Cc2cccc(F)c2)n1 | > 29.5 µM | 
Cc1cc(C(=O)N2CCCCC2c2nc(C)cs2)[nH]n1 (configuration not stated) | > 29.5 µM | 
CCc1ccc(NC(=O)N2C[C@H]3C[C@H](C(=O)NC)[C@@H](C2)O3)cc1 | > 29.5 µM | 

SMILES | IC50 [1] | other results
O=C(O)c1nnn(-c2ccc(OC(F)(F)F)cc2)c1-c1ccncc1 | > 29.5 µM | 
COc1ccc(C(=O)C2CCCN(CCCn3cccn3)C2)c(OC)c1 (configuration not stated) | > 29.5 µM | 
CN(C)c1ccc(CNc2cncc(-n3cccn3)n2)cc1 | > 29.5 µM | 
FC(F)(F)COCCN1CCCC(c2noc(C3CC3)n2)C1 (configuration not stated) | > 29.5 µM | 
CN1CCN(c2ncc3c(=O)n(-c4cccc(F)c4)c(=O)[nH]c3n2)CC1 | > 29.5 µM | 
Cc1nc(N2CCN(C)CC2)ncc1C(=O)N1CC(C)(C)C(C)(O)C1 (configuration not stated) | > 29.5 µM | 
CC(C)c1nc(C2CCCN2Cc2ccccc2C#N)no1 (configuration not stated) | > 29.5 µM | 
CN(C)c1ccc(C(=O)N2CCN(C(=O)N3CCCCC3)CC2)nn1 |  | IC50 [2]: > 100 µM; IC50 [3]: > 100 µM
O=C(NC1CC1)[C@H]1CC[C@@H]2[C@@H](CCN2c2ncc(F)cn2)O1 | > 29.5 µM | 
O=C(COCc1nc(-c2ccncc2)no1)N1CCCCCC1 | > 29.5 µM | 
O=C1CSC(c2ccsc2)c2sccc2N1 (configuration not stated) | > 29.5 µM | 
O=C(Cn1c(=O)n(Cc2ccco2)c2ncccc21)NC1CCCCC1 | > 29.5 µM | 
Cc1ccc(S(=O)(=O)NCCNC(=O)c2ccoc2)cc1F | > 29.5 µM | 
CNc1cc(N2CCCC2CNCc2ccc(Cl)o2)ncn1 (configuration not stated) | > 29.5 µM | 
CC(Cn1cccn1)NC(=O)N1CCN(Cc2cccs2)CC1 (configuration not stated) | > 29.5 µM | 
CCn1ncnc1C1CC(=O)NCc2nc3ccccn3c21 (configuration not stated) | > 29.5 µM | 
O=C(c1csc(Br)c1)N1CCCC(n2ccnc2)C1 (configuration not stated) | > 29.5 µM | 
CNC(=O)C1CCC(NC(=O)N(C)Cc2c(C)noc2C)CC1 (configuration not stated) | > 29.5 µM | 
Cc1ccc(CNC(=O)CN2CCN(CC(O)C3CC3)CC2)cc1 (configuration not stated) | > 29.5 µM | 
CCc1ccc(-n2c(=O)[nH]c3nc(N4CCSCC4)ncc3c2=O)cc1 | > 29.5 µM | 
COc1ccc(C(=O)N2CCCCC2c2nc(C)cs2)nn1 (configuration not stated) | 21.8 µM and > 29.5 µM | 
Cc1cccc(C(=O)N2C[C@@H](OCc3cccnc3)[C@H]3OCCC[C@@H]32)n1 | > 29.5 µM | 

SMILES | IC50 [1] | other results
CCNC(=O)[C@@H]1C[C@H](NC(=O)Cc2ccsc2)CN1Cc1ccc(C)o1 | > 29.5 µM | 
Cc1cc(NC(=O)Cn2cc(C#N)c(=O)c3cc(Br)ccc32)no1 | > 29.5 µM and 25.6 µM | 
COc1ccc(C(=O)C2CCCN(Cc3ccncc3)C2)c(OC)c1 (configuration not stated) | > 29.5 µM | 
O=C(NC1CC1)[C@H]1C[C@H]2OCC[C@H]2N(CC2CCOCC2)C1 | > 29.5 µM | 
COc1ccc(NC(=O)CCC2CCCN(Cc3ncon3)C2)cc1Cl (configuration not stated) | > 29.5 µM | 
CCc1nc(C2CCCN(C(=O)c3cn(C)nc3C)C2)no1 (configuration not stated) | > 29.5 µM | 
COCCN1CCN(CCCS(C)(=O)=O)CC1C (configuration not stated) | > 29.5 µM | 
CCNC(=O)N(C)Cc1ccc(SC)c(OC)c1 | > 29.5 µM | 
CC(=O)N(Cc1noc(C)n1)C1CCN(Cc2ccon2)C1 (configuration not stated) | > 29.5 µM | 
c1ncn(CC2CCCCN2Cc2csc(C3CCCC3)n2)n1 (configuration not stated) | > 29.5 µM | 
COCCn1ccc(NC(=O)Nc2ccc(C(N)=O)c(F)c2)n1 | > 29.5 µM | 
Cc1ccc(-c2nc(CNC3CCc4ncnn4C3)co2)c(C)c1 (configuration not stated) | > 29.5 µM | 
CCOCCN1CCN(Cc2cccc(C(=O)N(C)C)c2)CC1 | > 29.5 µM | 
O=C(c1ccnnc1)N1C[C@@H](OCC2CCOCC2)[C@H]2OCCC[C@H]21 | > 29.5 µM | 
CS(=O)(=O)NCc1cc2n(n1)CCCN(Cc1cccc(C#N)c1)C2 | > 29.5 µM | 
O=C1NCc2ccc(NC(=O)C3CCCN3c3nccs3)cc21 (configuration not stated) | > 29.5 µM | 
CNS(=O)(=O)c1cccc(CNC(=O)c2c(C)oc(C)c2C)c1 | > 29.5 µM | 
COCCNC(=O)C(C)n1cc(Br)cn1 (configuration not stated) | > 29.5 µM | 
CCc1nnc(CNC2CCc3nc(C(C)C)nn3C2)o1 (configuration not stated) |  | IC50 [4]: > 100 µM; IC50 [2]: > 100 µM
CCNC(=O)CCN1CCC(c2cc(N3CCOCC3)nc(C)n2)CC1 | > 29.5 µM | 
COc1c(CNC2CCc3c(Cl)cccc32)c(C)nn1C (configuration not stated) | > 29.5 µM | 
Cc1nc(CN2CCCC(CCc3c(F)cccc3F)C2)c[nH]1 (configuration not stated) | > 29.5 µM | 

SMILES | IC50 [1] | other results
O=C1CSC(c2cccs2)c2cnn(C3CCCC3)c2N1 (configuration not stated) | > 29.5 µM | 
CN(C)CC1(O)CCN(S(=O)(=O)c2ccc(F)cc2)C1 (configuration not stated) | > 29.5 µM | 
Cc1cccc(CN2CCC3(CCCN(C(=O)c4ccsc4)C3)C2=O)n1 (configuration not stated) | > 29.5 µM | 
COCCC(=O)N1CCc2cc(Cl)cc(Cl)c2C1 | > 29.5 µM | 
COc1cccc2c1OCC(C(=O)NC1CCN(S(C)(=O)=O)CC1)C2 (configuration not stated) | > 29.5 µM | 
O=C1N(Cc2cccc(F)c2F)CCCC1(O)CNC1CCCC1 (configuration not stated) | > 29.5 µM | 
CNC(=O)COc1ccccc1CNC1CCc2ncnn2C1 (configuration not stated) | > 29.5 µM | 
c1cnn(Cc2nnc(C3CCN(C4CCOCC4)CC3)n2C2CC2)c1 | > 29.5 µM | 
O=C(NCC(F)(F)F)NC1CCCc2c1cnn2CCO (configuration not stated) | > 29.5 µM | 
CCCN1CCCn2nc(CNS(=O)(=O)c3cccc(C#N)c3)cc2C1 | > 29.5 µM | 
COCCN(C(=O)c1ccccn1)c1nc2c(s1)CCc1c-2cnn1C |  | IC50 [2]: > 100 µM; IC50 [5]: 0.574 µM; IC50 [6]: > 50.1 µM; IC50 [7]: 9.13 µM and 10.9 µM
CCN(CC)CCNC(=O)c1cc(C(C)C)nc(N2CCCC2)n1 | > 29.5 µM | 
O=C(Cn1c(=O)nc2n1C(=O)N(c1ccccc1)C2)Nc1ccccc1 | > 29.5 µM | 
CC(C)(C)n1ncc2c1NC(=O)CC2c1ccccc1 (configuration not stated) | > 29.5 µM | 
O=C(COc1coc(CN2CCCCCC2)cc1=O)c1ccccc1 | > 29.5 µM | 
COCc1nc2cc(NCc3ccc(C)o3)ccc2o1 |  | IC50 [2]: > 100 µM; IC50 [6]: > 50.1 µM; IC50 [7]: 67.5 µM and 55.3 µM
CN(C)Cc1ccc(C2CCCCN2C(=O)c2cccc(CO)n2)cc1 (configuration not stated) | > 29.5 µM | 
Cc1ccc(C(=O)N2CCn3cc(CN(C)Cc4ccco4)nc3C2)o1 | > 29.5 µM | 
CC(C)COCc1cncc2c1CCN(Cc1cnn(C)c1)C2 | > 29.5 µM | 
